# “And” between values parts separate entries of the source, which are not always exact repeats. Identical values can stand only once. “Also recorded” adds a separate entry of the source. Like-named read-outs stand apart in the source and are kept apart here. No end group written: not given here.
# Legend:
# PCY1 [1] = test: PCY1 macrocyclisation of truncated presegetalin F1 substrates with catalytic peptide; assay type: biochemical, Saponaria vaccaria; conditions: for effect of catalytic peptide on rate of PreF1coreT macrocyclisation: substrate PreF1coreT (FSASYSSKPIQT), 500 μM catalytic peptide
# PCY1, sequence (as listed by the source): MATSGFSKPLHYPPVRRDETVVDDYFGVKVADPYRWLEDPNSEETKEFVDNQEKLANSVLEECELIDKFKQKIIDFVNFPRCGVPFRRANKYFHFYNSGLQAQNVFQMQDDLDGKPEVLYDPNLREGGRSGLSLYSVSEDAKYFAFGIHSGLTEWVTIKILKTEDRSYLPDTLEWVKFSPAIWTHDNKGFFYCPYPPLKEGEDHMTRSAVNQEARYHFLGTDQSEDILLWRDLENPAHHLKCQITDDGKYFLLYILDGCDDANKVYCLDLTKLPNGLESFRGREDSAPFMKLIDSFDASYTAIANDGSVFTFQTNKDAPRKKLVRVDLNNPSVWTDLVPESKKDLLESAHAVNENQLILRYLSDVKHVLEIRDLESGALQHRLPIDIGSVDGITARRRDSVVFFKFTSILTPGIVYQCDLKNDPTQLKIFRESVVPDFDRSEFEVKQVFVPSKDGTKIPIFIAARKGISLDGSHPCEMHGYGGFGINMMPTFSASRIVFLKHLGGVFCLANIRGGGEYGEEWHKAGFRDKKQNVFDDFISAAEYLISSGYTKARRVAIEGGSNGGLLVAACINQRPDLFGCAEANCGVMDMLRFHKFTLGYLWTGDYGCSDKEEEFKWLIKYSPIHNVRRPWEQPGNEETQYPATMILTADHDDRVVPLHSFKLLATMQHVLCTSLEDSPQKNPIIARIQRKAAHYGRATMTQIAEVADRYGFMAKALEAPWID
# Protocol: Initial rate measurements at different substrate concentrations were performed in order to derive steady state kinetics. All reactions were performed with 0.25 μM PCY1 and 25, 50, 100, 200, 400 or 800 μM substrate ([…] or […]). Reactions containing catalytic peptide RNASAPV or DNASAPV were supplemented with 500 μM of each peptide, respectively. Reactions were performed in 20 mM TRIS pH 8.5, 100 mM NaCl, 5 mM DTT at 30° C. Time points were taken at 5, 15, 30, 45 and 60 min. Samples (50 μL) at each time point were quenched with 20 μL of 6% (v/v) TFA and then spun down for 30 min at 3,080×g. Samples were analysed via LC/MS (ZORBAX SBC18, 5 μm, 9.4 mm×50 mm (Agilent) column connected to an Agilent LC-MS instrument (G6130B Single Quad, Agilent Technologies)) using 0.1% (v/v) formic acid and a gradient of acetonitrile (5%-95%). Extracted ion count peaks for corresponding product (A[[…]]) masses ([M]: 954.44, [M]+H^+: 955.44 and [M]+Na^+: 977.44) were integrated and converted in corresponding product concentration using an ion count v. [product] calibration curve. Product concentration time courses were analysed with linear regression and slopes were plotted as a function of substrate concentrations (Michaelis Menten plot), deriving steady state kinetic parameters shown in FIGS. 7 to 9.
# GmPOPB_S577A = biological target: T1, GmPOPB_S577A (Galerina marginata, UniProt H2E7Q8, S577A); test: ITC binding to inactive mutant GmPOPB_S577A; conditions: for difference in binding affinity (fold): 13mer versus 35mer, 12 versus 17 amino acid recognition sequence; for binding (in words): concentrations up to 1 mM
# T1 construct: His-tag (TEV-cleavable) (cleaved yes); made in house; host or cells: E. coli BL21(DE3)
# T1 sequence (H2E7Q8 1-730 S577A): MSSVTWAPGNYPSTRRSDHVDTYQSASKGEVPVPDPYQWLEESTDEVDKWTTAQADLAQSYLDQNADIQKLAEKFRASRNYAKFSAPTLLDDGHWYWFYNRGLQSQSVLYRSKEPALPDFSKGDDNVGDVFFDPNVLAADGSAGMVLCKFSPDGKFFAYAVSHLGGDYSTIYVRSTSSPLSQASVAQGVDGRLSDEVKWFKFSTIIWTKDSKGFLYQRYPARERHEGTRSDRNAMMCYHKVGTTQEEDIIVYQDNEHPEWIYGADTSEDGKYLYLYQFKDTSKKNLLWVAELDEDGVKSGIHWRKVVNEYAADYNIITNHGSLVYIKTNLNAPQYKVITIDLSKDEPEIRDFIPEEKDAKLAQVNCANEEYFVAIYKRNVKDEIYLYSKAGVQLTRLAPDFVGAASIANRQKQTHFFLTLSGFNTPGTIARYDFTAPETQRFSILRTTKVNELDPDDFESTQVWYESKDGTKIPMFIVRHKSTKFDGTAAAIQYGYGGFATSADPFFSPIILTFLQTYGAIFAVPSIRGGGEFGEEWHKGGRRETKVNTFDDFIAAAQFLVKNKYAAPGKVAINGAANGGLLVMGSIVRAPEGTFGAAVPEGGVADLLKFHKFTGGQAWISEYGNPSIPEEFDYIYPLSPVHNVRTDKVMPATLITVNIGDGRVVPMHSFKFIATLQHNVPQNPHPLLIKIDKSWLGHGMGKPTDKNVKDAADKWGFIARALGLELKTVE
# Protocol: GmPOPB peptide ligand solutions were prepared in 20 mM Tris pH 8.0 containing 1 mM DTT, prior to buffer exchange by three cycles of dilution in 50 mM Tris pH 8.0 with 50 mM NaCl, 10 mM DTT followed by concentration using a Microsep Advance centrifugal device equipped with a 1 kDa cut off membrane (Pall Corporation). The same three cycles of dilution in 50 mM Tris pH 8.0 with 50 mM NaCl and 10 mM DTT followed by concentration were performed with the protein to be used in the titration using a Vivaspin protein concentrator spin column with a 30 kDa cut off (GE Healthcare). A final dilution to the concentration to be used for titration was performed using the buffer that passed through during the protein buffer exchange, both for the protein and peptide to be used to avoid any possible buffer mismatch. […] Titrations of peptide into protein solutions were conducted at 20° C. For all the titration experiments, a total of 19 injections of 2 μL were made at 120 s intervals. The heat released due to the first injection (0.4 μL) was excluded from data analyses. […] Equilibrium dissociation constants (Kd) as well as ΔH and ΔS values for binding of each peptide to protein were obtained by fitting the calorimetric data with a single-site model using the stoichiometry parameter n fixed at 1.0 using Malvern PEAQ-ITC data analysis software.
# We performed all ITC binding experiments at least in duplicate, and calculations of average and standard error of the mean were performed with GraphPad Prism.
# GmPOPB = biological target: T2, GmPOPB (Galerina marginata, UniProt H2E7Q8); test: GmPOPB kinetic assays (LC-MS); assay type: biochemical; conditions: room temperature
# T2 construct: His-tag (TEV-cleavable) (cleaved yes); host or cells: E. coli BL21(DE3)
# Protocol: Comparison between distinct GmPOPB substrates was performed in 50 mM Tris pH 8.0, 50 mM NaCl, 10 mM DTT with varying concentrations of substrates at room temperature. All reactions were performed in duplicates. Reactions were started by adding GmPOPB (50 nM for GmAMA1_C6S, 1 μM for the 13mer and 14mer, and 20 nM for other substrates) to the assay mixture containing buffer and peptide. Reactions were quenched at several time points by adding 50 μL reaction mixture to 20 μL 6% TFA. Reactants were separated from products for quantification by injecting 50 μL of each quenched time point mix onto a ZORBAX SB-C18, 5 μm, 9.4×50 mm (Agilent) column connected to an Agilent LC-MS (G6130B Single Quad, Agilent Technologies). Reactants were separated from products using a gradient from H2O containing 0.1% TFA or 0.1% formic acid and 5% acetonitrile to 50% acetonitrile, at 1.5 ml/min for 8 min. Peaks with ultra violet (UV) absorbance at 220 and 280 nm were integrated, the area of peaks corresponding to reactant and products was used to calculate the percentage of product formed after a correction for differences in the extinction coefficient of each peptide was applied (ε280-25mer=11,000M-1 cm-1, ε220-25mer=46,000M-1 cm-1, ε280-cyclic=5500M-1 cm-1, ε220-cyclic=34,000M-1 cm-1, and ε280-tail=5500M-1 cm-1). The sum of product+substrate was assumed equal to the total initial amount of substrate, product converted from % to concentration. This value was divided by concentration of enzyme present to yield v/Et (min-1). When enzyme mutants and peptides containing alanine in the core region were tested for activity, higher concentrations 5 μM enzyme and 100 μM substrate were incubated for 1 and 18 h at room temperature. For progress curves with the 35mer substrate, measurements were triplicate and quantification relied on ion counts from mass spectrometry. […] Authentic macrocyclic peptide was quantified by UV absorbance. Data showing products formed after 1 and 16 h with truncated peptides were performed twice. […] Kinetic data were fitted to a Michaelis-Menten equation using GraphPad Prism, and values reported are average and standard error of the mean.
# PCY1:S562A = test: ITC equilibrium binding to PCY1:S562A; set-up: species or system Saponaria vaccaria; conditions: for Kd: ITC, 25° C.
# PCY1:S562A, sequence (as listed by the source, stated change not applied): as the sequence (as listed by the source) above, with S562A counted along it
# Protocol: All PCY1 samples were buffer-exchanged or solubilized into buffer F and further diluted in the same batch of buffer F, in order to minimize buffer mismatches. ITC binding experiments were performed using a cell solution containing PCY1:S562A and a titrant solution with each peptide used. […] The measurements were performed at a stir speed of 750 rpm at 25° C. using a reference power of 10 μcal/s, except for A1-NH2 (5 μcal/s). A buffer titration control in which peptide was titrated into buffer was performed for each experiment. Data processing, fitting to a non-linear one-site binding model, and data plotting was performed using MicroCal PEAQ ITC analysis software (Malvern). […] The measurement was performed in buffer at 30° C., at 750 rpm using a reference power of 5 μcal/s.
# PCY1 [2] = test: LC/MS steady-state kinetics of macrocyclisation by PCY1; assay type: biochemical, Saponaria vaccaria; conditions: for Km: read-out: Km (table head prints Kin)
# Protocol: (§1) All kinetic measurements (activity tests, progress curves and initial-rate experiments) were performed as discontinuous assays analyzing samples via LC/MS or MALDI (10-mer activity test). Reactions were performed in 20 mM Tris pH 8.5, 100 mM NaCl, 5 mM DTT (for progress curves 0.2 mg mL-1 BSA was included).17 Reactions were performed at 30° C. and at various time points 50 μL samples were quenched with 20 μL of 6% (v/v) TFA. Samples (50 μL) were loaded onto a ZORBAX SBC18, 5 μm, 9.4 mm×50 mm (Agilent) column connected to an Agilent LC-MS instrument (G6130B Single Quad, Agilent Technologies). Reactants were separated from products using a gradient from A (H2O with 0.1% formic acid) to 80% B (acetonitrile), at a rate of 1.5 mL/min for 8.75 min. For data analysis, ion count peaks and UV absorbance peaks were integrated using Agilent ChemStation software. For data analysis involving quantitative mass spec integration, calibration curves with macrocyclic peptide product were performed in triplicate in order to linearly correlate ion counts to cyclic product concentration. Data fitting and plotting was performed with Prism 6.
# (§2) PCY1 extracted from S. vaccaria seeds has been previously described to have a turnover number of ˜1 h^−1 for PresegA1.^17 The enzyme produced heterologously in E. coli was evaluated by LC/MS-based time course experiments macrocyclizing 200 μM of PresegA1, PresegB1 or PresegF1 with 3.6 μM PCY1. These substrates were chosen as they produce 6, 5 and 9 residue macrocycles, respectively, show variability in the length of the C-terminal tail sequence, and have a different C-terminal core residue (proline in PresegF1, alanine in the other two) (FIG. 1b). PresegB1 was completely macrocyclized in ˜30 min, PresegA1 in ˜50 min and PresegF1 in >3 h (FIG. 2a). We chose to investigate the slowest and fastest substrate by steady-state kinetics using an LC/MS assay and UV280 nm quantification. […] Under the ITC conditions, the measured kcat (0.14±0.01 s^−1) was a factor of three lower than the LC/MS derived values. […] Therefore, we resorted to an LC/MS assay followed by quantification using mass ion counts, relying on a calibration curve employing the macrocyclic peptide product as a standard (FIG. 2b).
# PCY1 [3] = test: LC/MS time course of macrocyclisation by PCY1; assay type: biochemical, Saponaria vaccaria; conditions: 200 μM substrate, 3.6 μM PCY1
# Protocol: as §1
# as §2, with “These substrates were chosen as they produce 6, 5 and 9 residue macrocycles, respectively, show variability in the length of the C-terminal tail sequence, and have a different C-terminal core residue (proline in PresegF1, alanine in the other two) (FIG. 1b). PresegB1 was completely macrocyclized in ˜30 min, PresegA1 in ˜50 min and PresegF1 in >3 h (FIG. 2a).” left out
# [4] = ITC, 20° C., S577A mutant, read-out: Kd
compound,measurement,setting,value
RNASAPV [catalytic peptide for PCY1],effect of catalytic peptide on rate of PreF1coreT macrocyclisation,PCY1 [1],increases the rate; also recorded: increase in the rate
RGANASAPV [catalytic peptide for PCY1],effect of catalytic peptide on rate of PreF1coreT macrocyclisation,PCY1 [1],increase in the rate
TLASGNDIC [9mer-recogSeq],Kd,GmPOPB_S577A,121 ± 19 µM
H-IWGIGCNPWTAE [12mer],Kd,GmPOPB_S577A; [4],21 ± 5 µM
H-IWGIGCNPWT [10mer],Kd,GmPOPB_S577A; [4],83 ± 17 µM
"CC[C@H](C)[C@H](NC(=O)CNC(=O)[C@H](Cc1c[nH]c2ccccc12)NC(=O)[C@@H](NC(=O)[C@@H]1CCCN1C(=O)[C@H](CC(C)C)NC(=O)[C@H](CCCNC(=N)N)NC(=O)[C@@H](NC(=O)[C@H](C)NC(=O)[C@H](CC(N)=O)NC(=O)[C@@H](NC(=O)[C@H](CC(=O)O)NC(=O)[C@H](Cc1ccccc1)NC(=O)[C@@H](N)CCSC)[C@@H](C)O)[C@@H](C)O)[C@@H](C)CC)C(=O)NCC(=O)N[C@@H](CS)C(=O)N[C@@H](CC(N)=O)C(=O)N1CCC[C@H]1C(=O)N[C@@H](Cc1c[nH]c2ccccc12)C(=O)N[C@H](C(=O)N[C@@H](C)C(=O)N[C@@H](CCC(=O)O)C(=O)N[C@@H](Cc1c[nH]cn1)C(=O)N[C@H](C(=O)N[C@@H](CC(=O)O)C(=O)N[C@@H](CCC(N)=O)C(=O)N[C@H](C(=O)N[C@@H](CC(C)C)C(=O)N[C@@H](C)C(=O)N[C@@H](CO)C(=O)NCC(=O)N[C@@H](CC(N)=O)C(=O)N[C@@H](CC(=O)O)C(=O)N[C@H](C(=O)N[C@@H](CS)C(=O)O)[C@@H](C)CC)[C@@H](C)O)C(C)C)[C@@H](C)O [35mer, reference compound]",Kd,GmPOPB_S577A; [4],0.12 ± 0.03 µM
H-IWGIGCNPWTAEHV [14mer],Kd,GmPOPB_S577A; [4],9.5 ± 1.1 µM
same,Km,GmPOPB,380 µM
same,kcat,GmPOPB,0.00967 s⁻¹
H-IWGIGCNPWTA [11mer],Kd,GmPOPB_S577A; [4],39 ± 18 µM
RANASAPV [catalytic peptide for PCY1],effect of catalytic peptide on rate of PreF1coreT macrocyclisation,PCY1 [1],increase in the rate
FSASYSSKPIQT [PresegF1-truncated],Kd (in words),PCY1:S562A; poor peptide solubility at high concentrations,too high to be accurately measured
same,Km,"PCY1 [2]; LC/MS (ion counts), 30° C.",227 µM
RGGNASAPV [catalytic peptide for PCY1],effect of catalytic peptide on rate of PreF1coreT macrocyclisation,PCY1 [1],increase in the rate
RASAPV,effect of catalytic peptide on rate of PreF1coreT macrocyclisation,PCY1 [1],increase in the rate
VDQTLASGNDIC [12mer-recogSeq],Kd,GmPOPB_S577A,5 ± 1 µM
same,difference in binding affinity (fold),GmPOPB_S577A,20 fold
PresegD1: native linear PCY1 substrate presegetalin D1 (GLSFAFPAKDAENASSPV),Kd,PCY1:S562A,~0.2 µM
DNASAPV [catalytic peptide for PCY1],effect of catalytic peptide on rate of PreF1coreD macrocyclisation,"PCY1 [1]; substrate PreF1coreD (FSASYSSKPIQD), mismatched catalytic peptide",reduces the rate
H-IWGIGCNPWTAEH [13mer],difference in binding affinity (fold),GmPOPB_S577A,~20 fold and 10 fold
same,Kd,GmPOPB_S577A; [4],2.4 ± 0.1 µM
same,Km,GmPOPB,25 µM
same,kcat,GmPOPB,0.00817 s⁻¹
MFDTNATRLP [reference compound],binding (in words),GmPOPB_S577A; ITC,no detectable binding
same,binding (in words),"GmPOPB_S577A; ITC, listed as 10-residue leader",does not bind
same,binding (in words),"GmPOPB_S577A; ITC, listed as leader",does not bind
PresegF1: native linear PCY1 substrate presegetalin F1; produces a 9 residue macrocycle (FSASYSSKPIQTQVSNGMDNASAPV; PresegF1),Kd,PCY1:S562A,~0.2 µM
same,kcat (table head prints kout),"PCY1 [2]; LC/MS (ion counts), 30° C.",0.12 ± 0.01 s⁻¹
same,Km,"PCY1 [2]; LC/MS (ion counts), 30° C.",2.4 ± 0.51 µM
same,processing by PCY1 (in words),"PCY1 [2]; steady state kinetics, FIG. 7",rapidly processed
same,time until completely macrocyclized,PCY1 [3],> 3 h
RGNASAPV [catalytic peptide for PCY1],effect of catalytic peptide on rate of PreF1coreT macrocyclisation,PCY1 [1],increase in the rate
RAANSAPV [catalytic peptide for PCY1],effect of catalytic peptide on rate of PreF1coreT macrocyclisation,PCY1 [1],increase in the rate

# Source: patent US20200291444A1, “Macrocyclisation Tags” (Oxford University Innovation LTD, priority 2017, published 2020)
